Patent US6399105B1, “Sea cucumber carotenoid lipid fraction products and methods of use” (priority 2000, dated 2002)

Assays:
[1] = tested on: adjuvant induced arthritis; assay: Adjuvant induced arthritis assay in rats; type: in vivo, rat; settings: 10 mg/kg orally once per day for 7 days; for Mean Paw Wt.: 6 rats; for % Anti-inflammatory Response: (control - test)/test x 100
5-lipoxygenase (5-LO) = biological target: T1, 5-lipoxygenase (5-LO) (Homo sapiens, UniProt P09917); assay: 5-Lipoxygenase assay in human PMNs (LTB4, isomers, 5-HETE by HPLC); type: cell-based; settings: human neutrophils
T1 construct: Human PMNs isolated by standard procedures from a normal volunteer were prewarmed to 37° C; endogenous in cells; host or cells: human polymorphonuclear leukocytes (neutrophils) from a normal volunteer
T1 sequence (P09917 1-674): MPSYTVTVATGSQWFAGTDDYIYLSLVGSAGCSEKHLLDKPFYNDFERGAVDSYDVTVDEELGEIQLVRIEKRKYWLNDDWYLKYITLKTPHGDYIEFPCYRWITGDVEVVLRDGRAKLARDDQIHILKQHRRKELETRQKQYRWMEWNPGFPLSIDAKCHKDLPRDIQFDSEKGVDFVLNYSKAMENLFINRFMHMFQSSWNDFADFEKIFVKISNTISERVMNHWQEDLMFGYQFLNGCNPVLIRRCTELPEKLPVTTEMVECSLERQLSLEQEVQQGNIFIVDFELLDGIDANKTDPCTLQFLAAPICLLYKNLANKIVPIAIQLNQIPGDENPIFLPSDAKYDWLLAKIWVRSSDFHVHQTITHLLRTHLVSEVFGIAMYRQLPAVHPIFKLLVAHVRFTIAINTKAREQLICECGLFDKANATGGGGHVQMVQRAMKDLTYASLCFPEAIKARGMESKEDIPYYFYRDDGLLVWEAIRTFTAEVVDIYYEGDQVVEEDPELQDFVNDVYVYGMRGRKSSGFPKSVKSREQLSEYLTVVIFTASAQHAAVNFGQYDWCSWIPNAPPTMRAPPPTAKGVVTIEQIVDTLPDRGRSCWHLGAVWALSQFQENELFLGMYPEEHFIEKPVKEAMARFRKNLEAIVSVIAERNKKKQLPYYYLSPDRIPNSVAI
Source text: 5-lipoxygenase (5-LO) is a key enzyme in the metabolism of arachidonic acid (AA) to leukotriene B4 (LTB4) and hydroxyeicosatetraenoic acid (5-HETE) it a wide variety of cells. including polymorphonuclear (PMN) leukocytes (Henderson, 1994) and has recently been linked to prostate and other cancers (Ghosh and Myers, 1997). LTB4 is a chemotaxic signaling agent involved in the migration of PMNs from the blood stream to sites of tissue injury, which is a hallmark of the inflammatory response. Human PMNs isolated by standard procedures from a normal volunteer were prewarmed to 37° C. and, at time=0, 10 μL of test compounds suspended in methanol by sonication, or methanol alone, were added to 1 mL of the PMN suspension. At t=10 min, […] of 2 mM AA were added to each suspension as the 5-LO substrate. At t=14 min, the calcium ionophore A23187 ([…], 1 mM) was added to activate the enzyme. The reaction was terminated at t=19 minutes by 100 μL of 100 mM citric acid, maintaining a pH of 3.0. Prostaglandin B2 and 15-HETE were added as internal standards for high pressure liquid chromatography (HPLC) quantification of LTB, and 5-HETE, respectively. Metabolites and standards were extracted from the suspension with chloroform/methanol (7:3). […] Metabolites were detected by ultraviolet light and quantified against standard curves. […]

[2] = tested on: PC3, MCF7, HT29 or BRO cell lines; assay: Anti-cancer assays, MTT viable dye method, 72 hr; type: cell-based; settings: human cancer cell lines
Method: RED OIL and GOLD OIL and various thin-layer chromatographic fractions have been tested against human cancer cell lines in vitro. Materials were initially dissolved in dimethyl sulfoxide and then diluted in tissue culture media. Aliquots of 23 μg/mL were then applied to PC3 (human prostate), MCF7 (human breast adenocarcinoma), HT29 (human colon adenocarcinoma) or BRO (human melanoma) cell lines. These fractions mediated inhibition of cell growth relative to untreated control cells as assessed after 72 hr by the MTT viable dye method as is commonly used by those skilled in the arts. […] One such fraction isolated from sea cucumber lipid phase by the method of Findlay et al. (1983b), plastochromanol-8, was considered to be promising in that values of 20-50 μg/mL were determined as IC50 values (that concentration inhibiting 50% of cell growth). […] Plastochromanol-8 was also shown to be inhibitory of the 12-Lipoxygenase pathway in human platelets.

12-lipoxygenase = biological target: T2, 12-lipoxygenase (Homo sapiens, UniProt P18054); assay: 12-HETE assay using human platelets; type: cell-based
T2 construct: assayed by the method similar to the assay for 5-lipoxygenase by using human platelets; endogenous in cells; host or cells: human platelets (mixed with polymorphonuclear leukocytes, challenged with A23187)
T2 sequence (P18054 1-663): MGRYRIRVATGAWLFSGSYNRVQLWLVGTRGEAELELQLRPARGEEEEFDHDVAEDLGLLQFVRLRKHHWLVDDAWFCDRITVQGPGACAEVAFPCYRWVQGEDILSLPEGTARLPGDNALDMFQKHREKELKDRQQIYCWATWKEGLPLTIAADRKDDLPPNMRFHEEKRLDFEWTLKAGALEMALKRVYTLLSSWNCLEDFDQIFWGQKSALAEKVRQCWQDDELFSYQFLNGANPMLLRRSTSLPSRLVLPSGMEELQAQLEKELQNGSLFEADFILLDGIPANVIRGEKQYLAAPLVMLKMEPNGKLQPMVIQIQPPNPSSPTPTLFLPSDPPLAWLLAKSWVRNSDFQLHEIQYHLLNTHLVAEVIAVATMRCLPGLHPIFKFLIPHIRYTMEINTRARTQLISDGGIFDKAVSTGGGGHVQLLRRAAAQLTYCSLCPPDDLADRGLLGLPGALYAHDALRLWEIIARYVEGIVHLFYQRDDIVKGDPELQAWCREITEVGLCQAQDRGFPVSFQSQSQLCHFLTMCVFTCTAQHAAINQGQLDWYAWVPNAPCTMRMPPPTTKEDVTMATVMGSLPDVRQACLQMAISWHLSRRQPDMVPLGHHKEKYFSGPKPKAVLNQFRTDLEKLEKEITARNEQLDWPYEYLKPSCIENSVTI
Method: RED OIL and GOLD OIL were assayed by the method similar to the assay for 5-lipoxygenase by using human platelets. Polymorphonuclear leukocytes were mixed, challenged with A23187, and 12-HETE production was measured by high pressure liquid chromatography (HPLC). Addition of a 1:10,000 dilution of RED OIL to the reaction yielded 12-HETE levels that were 65% that of methanolic controls, while A 1:1000 dilution of GOLD OIL yielded levels that were 46% of controls.

[3] = tested on: leukotriene synthesis in human neutrophils; assay: Leukotriene activation/synthesis assay in human neutrophils (method of Betts); type: cell-based
Source text: In a leukotriene activation assay showing the effect of plastochromanol-8 on leukotriene synthesis expressed as a percentage of a methanol control in human neutrophils, by the method of Betts (1997), plastochromanol-8 inhibited activation of 5-HETE by approximately 60 percent, LTB4 by approximately 40 percent, and two of the 6-trans isomers of LTB4 (6-trans-leukotriene B4 and 6-trans-12-epileukotriene B4), by 75%. In a related assay of the effect of plastochromanol-8 on leukotriene synthesis expressed as leukotriene synthesis per 10^6 PMN, plastochromanol-8 inhibited the production of 5-HETE by approximately 75%, LTB4 by 50%, and the two trans-6 isomers of LTB4 by approximately 80%. In similar assays with human platelets, plastochromanol-8 inhibited 12-HETE synthesis by approximately 80%.

[4] = leukotriene synthesis as percentage of methanol control
[5] = leukotriene synthesis per 10^6 PMN

C[C@]12CCC(=O)C=C1CC[C@@H]1[C@@H]2[C@@H](O)C[C@@]2(C)[C@H]1CC[C@]2(O)C(=O)CO [Hydrocortisone]
Mean Paw Wt. [1]: 0.61 gm | % Anti-inflammatory Response [1]: 59.0%

CCCCC1C(=O)N(c2ccccc2)N(c2ccccc2)C1=O [Phenylbutazone]
Mean Paw Wt. [1]: 0.38 gm | % Anti-inflammatory Response [1]: 155.3%

CC(C)=CCC/C(C)=C/CC/C(C)=C/CC/C(C)=C/CC/C(C)=C/CC/C(C)=C/CC/C(C)=C/CC/C(C)=C/CC[C@]1(C)CCc2cc(O)c(C)c(C)c2O1 [plastochromanol-8]
inhibition of 5-lipoxygenase metabolite synthesis (LTB4, isomers, 5-HETE), in words (5-lipoxygenase (5-LO)): dramatic inhibitor | IC50 (concentration inhibiting 50% of cell growth) [2]: 20 to 50 µg/mL | inhibition of 12-HETE synthesis (12-lipoxygenase): approximately 80% | inhibition of 12-lipoxygenase pathway, in words (12-lipoxygenase): inhibitory | inhibition of 5-HETE [3, 4]: approximately 60% | inhibition of 6-trans-leukotriene B4 and 6-trans-12-epileukotriene B4 [3, 4]: 75% | inhibition of LTB4 [3, 4]: approximately 40% | inhibition of production of 5-HETE [3, 5]: approximately 75% | inhibition of production of LTB4 [3, 5]: 50% | inhibition of production of the two trans-6 isomers of LTB4 [3, 5]: approximately 80%
